Assay results as given in PMC2796783, “Pharmacological Characterization of Inositol 1,4,5-tris Phosphate Receptors in Human Platelet Membranes” (Cardiovascular Psychiatry and Neurology, 2009).

Experiments:
[1] = system: T1, Ins(1,4,5)P3 receptors in human platelet membranes; test: displacement of […] [3H]Ins([…])P3, filtration, log probit analysis; type: binding; conditions: 20 nM [3H]Ins(1,4,5)P3, 50 mM Tris-HCl pH 8.5, 1 mM EDTA, 4 °C, 10 min
T1 construct: gene ITPR1; native receptor in crude platelet membranes of healthy human subjects; not purified; tetrameric channel

[2] = system: T1, Ins(1,4,5)P3 receptors in human platelet membranes; test: radioligand saturation binding, filtration, Scatchard (EBDA); conditions: 50 mM Tris-HCl pH 8.5, 1 mM EDTA, 1 mM 2-mercaptoethanol, 4 °C, 10 min; labelled compound; crude platelet membranes; single site

| IC50 [1] [nM] | IC50 ([1]; error exceeds the value) [nM] | Compound | Kd [2] [nM] |
| --- | --- | --- | --- |
| 1900 ± 680 |  | O=P(O)(O)O[C@H]1[C@@H](O)[C@H](O)[C@@H](OP(=O)(O)O)[C@H](OP(=O)(O)O)[C@H]1O [D-Ins(2,4,5)P3] |  |
| 4970 ± 1830 |  | O=P(O)(O)O[C@@H]1[C@@H](O)[C@@H](O)[C@@H](OP(=O)(O)OC[C@H](O)CO)[C@H](O)[C@H]1OP(=O)(O)O [GPIP2] |  |
| 354000 ± 37000 |  | O=P(O)(O)O[C@@H]1[C@@H](O)[C@H](OP(=O)(O)O)[C@@H](OP(=O)(O)O)[C@H](O)[C@@H]1O [L-Ins(1,4,5)P3] |  |
|  | 300 ± 500 | O=P(O)(O)O[C@@H]1[C@H](O)[C@H](O)[C@@H](OP(=O)(O)O)[C@H](OP(=O)(O)O)[C@H]1O [[^3H]Ins(1,4,5)P3] | 22.1 ± 2.34 |
